In brackets after ≈: the same amount, converted by molar mass.
What was measured:
B. subtilis ATCC 6633 = system: B. subtilis ATCC 6633; set-up: method as in PMID 25897586; conditions: B. s. ATCC 6633; compounds 1–5; cited from earlier work
[1] = system: S. epidermidis ATCC 12228; set-up: method as in PMID 25897586; conditions: S. e. ATCC 12228; compounds 1–5; cited from earlier work
B. cereus ATCC 10876 = system: B. cereus ATCC 10876; set-up: method as in PMID 25897586; conditions: B. c. ATCC 10876; compounds 1–5; cited from earlier work
M. luteus ATCC 10240 = system: M. luteus ATCC 10240; set-up: method as in PMID 25897586; conditions: M. l. ATCC 10240; compounds 1–5; cited from earlier work
MSSA-3 = test: MIC, clinical isolate of S. aureus; type: cell-based; conditions: Staphylococcus aureus; clinical isolate MSSA-3; read-out: MIC
Description: (§1) The antibacterial activity of the thiosemicarbazides 1–9 and antibiotics (amoxicillin, gentamicin, levofloxacin, linezolid, and vancomycin) was tested on the Gram-positive strains (Microbiologics, St. Cloud, MN, USA) (S. aureus ATCC 25923, S. aureus ATCC 6538, S. epidermidis ATCC 12228, B. subtilis ATCC 6633, B. cereus ATCC 10876, M. luteus ATCC 10240), the Gram-negative strains (Microbiologics, St. Cloud, MN, USA) (E. coli ATCC 25922, K. pneumoniae ATCC 13883, P. mirabilis ATCC 12453, P. aeruginosa ATCC 9027), and clinical isolates of S. aureus (Medical University of Lublin, Lublin, Poland) (MSSA-1, MSSA-2, MSSA-3, MSSA-4, MRSA-1).

MSSA-2 = test: MIC, clinical isolate of S. aureus; type: cell-based; conditions: Staphylococcus aureus; clinical isolate MSSA-2; read-out: MIC
Description: as §1

MRSA-1 = test: MIC, clinical isolate of S. aureus; type: cell-based; conditions: Staphylococcus aureus; clinical isolate MRSA-1; read-out: MIC
Description: as §1

MSSA-1 = test: MIC, clinical isolate of S. aureus; type: cell-based; conditions: Staphylococcus aureus; clinical isolate MSSA-1; read-out: MIC
Description: as §1

MSSA-4 = test: MIC, clinical isolate of S. aureus; type: cell-based; conditions: Staphylococcus aureus; clinical isolate MSSA-4; read-out: MIC
Description: as §1

S. aureus ATCC 6538 = system: S. aureus ATCC 6538; set-up: method as in PMID 25897586; conditions: S. a. ATCC 6538; compounds 1–5; cited from earlier work
S. aureus ATCC 25923 [2] = system: S. aureus ATCC 25923; set-up: method as in PMID 25897586; conditions: S. a. ATCC 25923; compounds 1–5; cited from earlier work
MTT cytotoxicity assay = type: cell-based, human; conditions: human, Hs27 foreskin fibroblast cells (ATCC CRL-1634), 25 µg/mL, 24 h, vehicle control = 100%
Description: (§2) A critical factor in research and development of new antibacterial agents is their abilities to selectively target bacterial cells without toxicity to mammalian cells. Thus, in order to test if antibacterial activity of title thiosemicarbazides is not due to their general toxicity, their effect on mammalian cell viability was assessed using human foreskin fibroblast Hs27 cells (CRL-1634) via MTT assay.
(§3) Cytotoxic properties of the compounds were evaluated using human foreskin fibroblast cells Hs27 (ATCC CRL-1634) (ATCC, Manassas, VA, USA) that were cultured in DMEM-high glucose (Sigma Aldrich, St. Louis, MO, USA). Medium was supplemented with 10% fetal bovine serum (FBS, Sigma Aldrich), 100 U/mL of penicillin, and […] of streptomycin (PenStrep, Sigma Aldrich, St. Louis, MO, USA). Cells were incubated at 37 °C in a humidified atmosphere of 5% CO2. Stock solutions of the tested compounds were prepared dissolving in a sterile dimethyl sulfoxide (DMSO) to the concentration of 50 mg/mL. The cells were seeded into 96-well sterile plates (Nunc) at a cell density of 1 × 10^5 cells/mL. After 24 h of incubation, the medium was removed from each well, and then cells were incubated for the next 24 h with tested compounds (in a fixed dose of 25 µg/mL) in DMEM-high glucose containing 2% FBS. Control cells were cultured only with medium containing 2% addition of FBS. Cytotoxicity of the compounds was evaluated using MTT assay, which is based on the conversion of 3-(4,5-dimethylthiazol-2-yl)-2,5- diphenyltetrazolium bromide (MTT) into dark-blue formazan crystals. Briefly, after 24-h incubation of cells with varying concentrations of the tested compounds, culture medium was removed from the plates. Cells were washed with PBS, and then 100 µL of medium containing 10% MTT solution (5 mg/mL) was added to each well. Cells were incubated for the next 3 h at 37 °C in an atmosphere of 5% CO2. Next, 100 µL (per well) of 10% sodium dodecyl sulfate (SDS) buffer solution was added to dissolve formazan crystals and after an overnight incubation the absorbance was measured at 570 nm using a microplate reader (Epoch, BioTek Instruments, Inc., Winooski, VT, USA).

[3] = system: human foreskin fibroblast Hs27 cells (CRL-1634); test: MTT cytotoxicity assay; type: cell-based; conditions: Homo sapiens, 24 h of treatment
Description: as §2, §3

S. aureus ATCC 25923 [4] = test: Checkerboard broth dilution synergy assay; type: cell-based
Description: The microdilution checkerboard method was used to evaluate the synergistic effects between the thiosemicarbazides 1–9 and antibiotics, which were determined as the fractional inhibitory concentration indices (FICIs). For these experiments, amoxicillin, gentamicin, levofloxacin, linezolid, and vancomycin were selected to represent the five antimicrobial classes most commonly used in clinical practice. In this way, a total of 45 combinations of thiosemicarbazide-amoxicillin, thiosemicarbazide-gentamicin, thiosemicarbazide-levofloxacin, thiosemicarbazide-linezolid, and thiosemicarbazide-vancomycin against S. aureus ATCC 25923 were tested to identify in vitro synergy effects.
Interaction of the thiosemicarbazides 1–9 in combination with amoxicillin, gentamicin, levofloxacin, linezolid or vancomycin against S. aureus ATCC 25923 were analyzed using the checkerboard broth dilution method to determine the fractional inhibitory concentration indices (FICIs), calculated as: FIC = MIC of drug A in combination/MIC of drug A alone + MIC of drug B in combination/MIC of drug B alone. The calculated FICIs were interpreted as synergistic (FIC ≤ 0.5), additive (0.5 < FIC < 1), indifferent (1 ≤ FIC < 4.0), or antagonistic (FIC ≥ 4.0). The checkerboard assay included ciprofloxacin-carvedilol combination as positive control, whereas cefuroxime in combination with 4-(4-bromophenyl)-1-(3-fluorobezoyl)thiosemicarbazide served as negative control. The Z-factor value for the bioassay was 0.683.

[5] = molecular target: T1, S. aureus topoisomerase IV (Staphylococcus aureus, UniProt P0C1S7+P0C1U9); test: Topoisomerase IV decatenation assay; type: biochemical; conditions: in words; 50 and 100 µM tested (Figures S1–S3)
T1 construct: purchased Inspiralis, Norwich, UK
Description: Inhibition of decatenation activity of S. aureus topoisomerase IV: The assay was performed using S. aureus topoisomerase IV decatenation kits (Inspiralis, Norwich, UK). Interlinked kDNA substrate (0.5 µg) was incubated with 1 unit of topoisomerase IV (Inspiralis, Norwich, UK), in the dedicated decatenation assay buffer supplied by the manufacturer, in the presence of varying concentrations of the test compounds. Reactions were carried out at 37 °C for 1 h and then terminated by the addition of equal volume of 2 × STOP Buffer and chloroform/iso-amyl alcohol. Samples were vortexed, centrifuged, and run through a 15 cm 1% agarose gel in TAE buffer for 1.5 h at 80 V. Gels were stained with ethidium bromide and visualized under UV light.

Row | MIC (MSSA-3) [µg/mL] | MIC (MSSA-2) [µg/mL] | MIC (MRSA-1) [µg/mL] | MIC (MSSA-1) [µg/mL] | MIC (MSSA-4) [µg/mL] | inhibitory action against topoisomerase IV [5] | Structure (SMILES) | MIC (B. subtilis ATCC 6633) [µg/mL] | MIC [1] [µg/mL] | MIC (B. cereus ATCC 10876) [µg/mL] | MIC (M. luteus ATCC 10240) [µg/mL] | MIC (S. aureus ATCC 6538) [µg/mL] | MIC (S. aureus ATCC 25923 [2]) [µg/mL] | viability at 24 h, 25 µg/mL (MTT cytotoxicity assay) [%] | IC50 [3] [µg/mL] | interaction in combination (S. aureus ATCC 25923 [4]; combination with amoxicillin) | interaction in combination (S. aureus ATCC 25923 [4]; combination with gentamicin) | interaction in combination (S. aureus ATCC 25923 [4]; combination with levofloxacin) | interaction in combination (S. aureus ATCC 25923 [4]; combination with linezolid) | interaction in combination (S. aureus ATCC 25923 [4]; combination with vancomycin)
1 | > 500 | > 500 | 125 (≈ 310 µM) | > 500 | 250 (≈ 621 µM) | no inhibitory effects | O=C(NC(=S)NNC(=O)c1cccc(Cl)c1Cl)c1ccccc1Cl [compound 3] | 3.91 (≈ 9.71 µM) | 7.81 (≈ 19.4 µM) | 3.91 (≈ 9.71 µM) | 0.98 (≈ 2.43 µM) | 15.63 (≈ 38.8 µM) | 15.63 (≈ 38.8 µM) | 81 | > 25 | additively | additively | additively | additively | no interaction
2 | > 500 | > 500 | 250 (≈ 605 µM) | > 500 | 500 (≈ 1210 µM) | – | O=C(NC(=S)NNC(=O)c1cccc(Cl)c1Cl)c1ccc([N+](=O)[O-])cc1 [compound 5] | 0.98 (≈ 2.37 µM) | 1.95 (≈ 4.72 µM) | 0.98 (≈ 2.37 µM) | 0.49 (≈ 1.19 µM) | 1.95 (≈ 4.72 µM) | 1.95 (≈ 4.72 µM) | 70.9 | > 25 | no interactions | no interactions | no interactions | synergistically | no interactions
3 | > 500 | > 500 | > 500 | > 500 | 500 (≈ 1240 µM) | – | O=C(NC(=S)NNC(=O)c1cccc(Cl)c1Cl)c1ccc(Cl)cc1 [compound 4] | 0.98 (≈ 2.43 µM) | 7.81 (≈ 19.4 µM) | 3.91 (≈ 9.71 µM) | 1.95 (≈ 4.84 µM) | 15.63 (≈ 38.8 µM) | 31.25 (≈ 77.6 µM) | 80.7 | > 25 | additive | – | synergistic | additive | did not display any synergism nor additivity
4 | > 500 | > 500 | 125 (≈ 327 µM) | > 500 | > 500 | no inhibitory effects | Cc1ccccc1C(=O)NC(=S)NNC(=O)c1cccc(Cl)c1Cl [compound 1] | 3.91 (≈ 10.2 µM) | 7.81 (≈ 20.4 µM) | 3.91 (≈ 10.2 µM) | 1.95 (≈ 5.1 µM) | 15.63 (≈ 40.9 µM) | 15.63 (≈ 40.9 µM) | 78.5 | > 25 | additive | no interactions | no interactions | additive | no interactions
